“And” between values parts separate entries of the source, which are not always exact repeats. Identical values can stand only once. Counter-ions that a name gives are not always drawn.
tested on: NRG1-ERBB4 signaling; test: Nrg1-ERBB4-PIK3R1 split TEV co-culture compound screen of the NIH Clinical Collection; type: cell-based, human; details: not given

Compound	Z-SCORE
C[C@]12CC[C@H]3[C@@H](CCC4=CC(=O)CC[C@@]43C)[C@@H]1CC[C@@H]2O [Testosterone, reference compound]	0.79 and 0.91

same assay, conditions: NIH Clinical Collection NCC-003 raw data; compounds ranked by Z-score; 'flagged' given instead of a Z-score

Compound	Z-SCORE
O=C(O)c1cc(/N=N/c2ccc(S(=O)(=O)Nc3ccccn3)cc2)ccc1O [SULFASALAZINE]	-2.84
C=CC[C@@H]1/C=C(\C)C[C@H](C)C[C@H](OC)[C@H]2O[C@@](O)(C(=O)C(=O)N3CCCC[C@H]3C(=O)O[C@H](/C(C)=C/[C@@H]3CC[C@@H](O)[C@H](OC)C3)[C@H](C)[C@@H](O)CC1=O)[C@H](C)C[C@@H]2OC [TACROLIMUS]	-1.97
[H]/N=C(/NCCCCC)N/N=C/c1c[nH]c2ccc(OC)cc12 [TEGASEROD MALEATE]	flagged
CN(C)CCOc1ccc(/C(=C(/CCCl)c2ccccc2)c2ccccc2)cc1 [TOREMIFENE CITRATE]	flagged
CSc1nc2cc(Cl)c(Oc3cccc(Cl)c3Cl)cc2[nH]1 [TRICLABENDAZOLE]	-1.39
CCC(COC(=O)c1cc(OC)c(OC)c(OC)c1)(c1ccccc1)N(C)C.O=C(O)/C=C\C(=O)O (stereo not drawn) [TRIMEBUTINE MALEATE]	-1.14
CC(C)[C@]12O[C@H]1[C@@H]1O[C@]13[C@]1(O[C@H]1C[C@H]1C4=C(CC[C@@]13C)C(=O)OC4)[C@@H]2O [TRIPTOLIDE]	flagged

same assay, conditions: compound screen of the NIH Clinical Collection, sheet raw data NCC-003; compounds ranked by Z-score

Compound	Z-SCORE
CNS(=O)(=O)Cc1ccc2[nH]cc(CCN(C)C)c2c1 [SUMATRIPTAN SUCCINATE]	-0.07
CNCC(O)c1ccc(O)cc1 (stereo not drawn) [SYNEPHRINE]	-0.41
OCc1cc(C(O)CNCCCCCCOCCCCc2ccccc2)ccc1O (stereo not drawn) [Salmeterol]	0.6
C#CCN(C)[C@H](C)Cc1ccccc1 [Selegiline hydrochloride]	-0.57
CN[C@H]1CC[C@@H](c2ccc(Cl)c(Cl)c2)c2ccccc21 [Sertraline, reference compound]	-0.03
CC(C)CC(N(C)C)C1(c2ccc(Cl)cc2)CCC1 (stereo not drawn) [Sibutramine]	-0.34
CC(C)NCC(O)c1ccc(NS(C)(=O)=O)cc1 (stereo not drawn) [Sotalol hydrochloride]	1.57
C[C@]12Cc3c[nH]nc3C[C@@H]1CC[C@@H]1[C@@H]2CC[C@@]2(C)[C@H]1CC[C@]2(C)O [Stanozolol]	0.07
CC(C)(C)C(O)/C=C/c1ccc2c(c1)OCO2 (stereo not drawn) [Stiripentol]	-0.21
O=C1c2c(O)cc(O)cc2OC(c2ccc(O)c(O)c2)C1O (stereo not drawn) [TAXIFOLIN-(+)]	1.25
Cn1nnc2c(C(N)=O)ncn2c1=O [TEMOZOLOMIDE]	0.54
CN(C/C=C/C#CC(C)(C)C)Cc1cccc2ccccc12 [TERBINAFINE HCl]	-0.44
FC(F)(F)c1cccc(N2CCNCC2)c1 [TFMPP]	1.34
Cc1ccsc1C(=CCCN1CCC[C@@H](C(=O)O)C1)c1sccc1C [TIAGABINE HCl]	-0.1
C#C[C@]1(O)CC[C@H]2[C@@H]3[C@H](C)CC4=C(CCC(=O)C4)[C@H]3CC[C@@]21C [TIBOLONE]	2.26
CCS(=O)(=O)CCn1c([N+](=O)[O-])cnc1C [TINIDAZOLE]	-0.51
Cc1cccc(C)c1NC(=O)C(C)N (stereo not drawn) [TOCAINIDE]	-0.41
Cc1ccc(O)c([C@H](CCN(C(C)C)C(C)C)c2ccccc2)c1 [TOLTERODINE TARTRATE]	-1.01
CC1(C)O[C@@H]2[C@@H](CO[C@@]3(COS(N)(=O)=O)OC(C)(C)O[C@@H]23)O1 [TOPIRAMATE]	0.63

Compound	Z-SCORE
Cc1cccc(Nc2ccncc2S(=O)(=O)NC(=O)NC(C)C)c1 [TORASEMIDE]	0.4
NC1CCN(c2nc3c(cc2F)c(=O)c(C(=O)O)cn3-c2ccc(F)cc2F)C1 (stereo not drawn) [TOSUFLOXACIN TOSYLATE]	0.08
O=c1n(CCCN2CCN(c3cccc(Cl)c3)CC2)nc2ccccn12 [TRAZODONE HYDROCHLORIDE]	0.17
O=C(O[C@H]1[C@H](Oc2ccccc2COC(=O)C2(O)C=CCCC2=O)O[C@H](CO)[C@@H](O)[C@@H]1O)c1ccccc1 (stereo partly drawn) [TREMULACIN]	0.29
CN(C)CCN(Cc1ccccc1)c1ccccn1 [TRIPELENNAMINE HYDROCHLORIDE]	0.58
CN1[C@@H]2CC[C@H]1C[C@@H](OC(=O)c1c[nH]c3ccccc13)C2 [TROPISETRON HCl]	0.72
COc1cc(C(=O)NC2CCCNC2)cc(OC)c1OC (stereo not drawn) [TROXIPIDE]	-0.33
c1ccc2c3c([nH]c2c1)CNCC3 [TRYPTOLINE]	0.19
CC[C@H]1OC(=O)[C@H](C)C(=O)[C@H](C)[C@@H](O[C@@H]2O[C@H](C)C[C@H](N(C)C)[C@H]2O)[C@](C)(OC)C[C@@H](C)C(=O)[C@H](C)[C@H]2N(CCCCn3cnc(-c4cccnc4)c3)C(=O)O[C@]12C [Telithromycin, reference compound]	3.13
COc1cc2nc(N3CCN(C(=O)C4CCCO4)CC3)nc(N)c2cc1OC (stereo not drawn) [Terazosin, reference compound]	-0.8
CC[C@@]1(O)C(=O)OCc2c1cc1n(c2=O)Cc2cc3c(CN(C)C)c(O)ccc3nc2-1 [Topotecan HCl, reference compound]	7.97
COc1cccc(C2(O)CCCCC2CN(C)C)c1 (stereo not drawn) [Tramadol]	-0.17
NC(=O)N1c2ccccc2CC(=O)c2ccccc21 [Trileptal]	0.62
COc1ccccc1N1CCN(CCCNc2cc(=O)n(C)c(=O)n2C)CC1 [URAPIDIL HYDROCHLORIDE]	0.51
CC(C)[C@H](N)C(=O)OCCOCn1cnc2c(=O)[nH]c(N)nc21 [VALACICLOVIR HYDROCHLORIDE]	0.49
Cc1onc(-c2ccccc2)c1-c1ccc(S(N)(=O)=O)cc1 [VALDECOXIB]	0.19
CC(=O)O[C@H]1C[C@@H]2CC[C@@H]3[C@H](CC[C@@]4(C)[C@H]3C[C@H]([N+]3(C)CCCCC3)[C@@H]4OC(C)=O)[C@@]2(C)C[C@@H]1N1CCCCC1 [VECURONIUM BROMIDE]	0.97
COc1ccc(C(CN(C)C)C2(O)CCCCC2)cc1 (stereo not drawn) [VENLAFAXINE HCl]	0.54

same assay, conditions: compounds at 10 μM, 24 h; PC12 split TEV assay cells co-cultured with Nrg1-expressing PC12 cells; analysed with cellHTS2

Compound	Z-SCORE
CN[C@H]1CC[C@@H](c2ccc(Cl)c(Cl)c2)c2ccccc21 [Sertraline, reference compound]	flagged
CCC(C)(C)C(=O)O[C@H]1C[C@@H](C)C=C2C=C[C@H](C)[C@H](CC[C@@H]3C[C@@H](O)CC(=O)O3)[C@H]21 [Simvastatin, reference compound]	flagged
CN(C)CCCN1c2ccccc2Sc2ccc(Cl)cc21 [Sonazine, reference compound]	0.6
CC(=O)NS(=O)(=O)c1ccc(N)cc1 [Sulfacetamide, reference compound]	0.29
Cc1cc(NS(=O)(=O)c2ccc(N)cc2)no1 [Sulfamethoxazole, reference compound]	0.87
O=C1C(CC[S+]([O-])c2ccccc2)C(=O)N(c2ccccc2)N1c1ccccc1 (stereo not drawn) [Sulfinpyrazone, reference compound]	0.99
Cc1noc(NS(=O)(=O)c2ccc(N)cc2)c1C [Sulfisoxazole, reference compound]	1.21
CC1=C(CC(=O)O)c2cc(F)ccc2/C1=C\c1ccc([S+](C)[O-])cc1 (stereo not drawn) [Sulindac, reference compound]	1.51
NC12CC3CC(CC(C3)C1)C2 [Symmetrel, reference compound]	0.15
CN(C)[C@@H]1C(O)=C(C(N)=O)C(=O)[C@@]2(O)C(O)=C3C(=O)c4c(O)cccc4[C@@](C)(O)[C@H]3C[C@@H]12 [TETRACYCLINE, reference compound]	0.95
c1ccc2[nH]c(-c3cscn3)nc2c1 [THIABENDAZOLE, reference compound]	-1.42
CSc1ccc2c(c1)N(CCC1CCCCN1C)c1ccccc1S2 (stereo not drawn) [THIORIDAZINE HYDROCHLORIDE, reference compound]	flagged
CN1CCN(CC/C=C2/c3ccccc3Sc3ccc(S(=O)(=O)N(C)C)cc32)CC1 [THIOTHIXENE, reference compound]	1.3
Cc1ccc(S(=O)(=O)NC(=O)NN2CCCCCC2)cc1 [TOLAZAMIDE, reference compound]	0.3
CC1(C)O[C@@H]2C[C@H]3[C@@H]4CCC5=CC(=O)C=C[C@]5(C)[C@@]4(F)[C@@H](O)C[C@]3(C)[C@]2(C(=O)CO)O1 [TRIAMCINOLONE ACETONIDE, reference compound]	-1.51
CC/C(=C(\c1ccccc1)c1ccc(OCCN(C)C)cc1)c1ccccc1 [Tamoxifen, reference compound]	1.48
CC[C@H]1OC(=O)[C@H](C)C(=O)[C@H](C)[C@@H](O[C@@H]2O[C@H](C)C[C@H](N(C)C)[C@H]2O)[C@](C)(OC)C[C@@H](C)C(=O)[C@H](C)[C@H]2N(CCCCn3cnc(-c4cccnc4)c3)C(=O)O[C@]12C [Telithromycin, reference compound]	3.13
COc1cc2nc(N3CCN(C(=O)C4CCCO4)CC3)nc(N)c2cc1OC (stereo not drawn) [Terazosin, reference compound]	-1.96
CC(C)(C)NCC(O)c1cc(O)cc(O)c1 (stereo not drawn) [Terbutaline Sulfate, reference compound]	0.15
O=C1CCC(N2C(=O)c3ccccc3C2=O)C(=O)N1 (stereo not drawn) [Thalidomide, reference compound]	-0.61
Cn1c(=O)c2[nH]cnc2n(C)c1=O [Theophylline, reference compound]	2.57
Clc1ccc2nsnc2c1NC1=NCCN1 [Tizanidine hydrochloride, reference compound]	-0.96
CCCCNC(=O)NS(=O)(=O)c1ccc(C)cc1 [Tolbutamide, reference compound]	0.32
CC[C@@]1(O)C(=O)OCc2c1cc1n(c2=O)Cc2cc3c(CN(C)C)c(O)ccc3nc2-1 [Topotecan HCl, reference compound]	7.97
Nc1nc(N)c2nc(-c3ccccc3)c(N)nc2n1 [Triamterene, reference compound]	0.78
Oc1cc(Cl)ccc1Oc1ccc(Cl)cc1Cl [Triclosan, reference compound]	flagged
COc1cc(Cc2cnc(N)nc2N)cc(OC)c1OC [Trimethoprim, reference compound]	0.28
c1ccc2c(c1)CCCC2C1=NCCN1 (stereo not drawn) [Tyzine, reference compound]	0.46
C[C@H](CCC(=O)O)[C@H]1CC[C@H]2[C@@H]3[C@@H](O)C[C@@H]4C[C@H](O)CC[C@]4(C)[C@H]3CC[C@]12C [URSODEOXYCHOLIC ACID, reference compound]	-1.5
CC(C[N+](C)(C)C)OC(N)=O (stereo not drawn) [Urecholine, reference compound]	-0.94
